{"source": "patent US20080114055A1", "about": "“Thioxanthone Compounds to Reverse Weight Loss” (ZOLTAN LABORATORIES LLC, priority 2006, published 2008)", "key": {"[1]": {"test": "Water solubility", "format": "physicochemical", "conditions": "at the concentration used in vivo"}, "[2]": {"test_system": "T47D human breast tumor", "test": "T47D human estrogen receptor positive breast cancer model: body, total and tumor weight", "format": "in vivo, mice", "conditions": "for Body weight: total minus tumor weight", "excerpt": "Tumors were developed in a homozygous line of C.B.-171 cr scid/scid adult female mice kept at specified pathogen free (SPF) hygienic levels. Suspensions of HL-60 human leukemia cells (about 1,500,000 cells), or approximately 0.1 cm^3 volume of tumor tissue derived from HT-168 human melanoma, PC-3 human prostate adenocarcinoma, or T47D human breast carcinoma were implanted subcutaneously to develop the tumors. After 12-18 days when the tumor-bearing mice were first treated, the size of the tumors was in the 0.2-0.4 cm^3 range. CCcompound1 was dissolved in physiological (0.9%) saline (NaCl) and applied subcutaneously in 50 μl volume. Tumor volume was determined by calipers in three dimensions; this technique is well known to one having ordinary skill in the art. Tumor volume was calculated according to the generally accepted formula: V=a^2×b×π/6, where “a” and “b” mean the shortest and longest diameter, respectively, of the measured tumor. Tumor weight was calculated from tumor volume using a 0.7 (tumor weight) : 1 (tumor volume) ratio. Total weight and tumor volume/weight was measured regularly (at least every second day). In all tumor experiments, each treatment group consisted of five animals. Accordingly, all data are the average of five independent determinations (one determination for each animal). T47D human tumors were developed in mice as described above. Treatments with CCcompound1 were started on day 17 after tumor implantation and conducted for five days and then followed by an additional five days with 2 treatment-free days inserted between the 2 series of treatments. The results, shown in TABLE 5, indicate that between day 17 and 28 after tumor implantation, this breast tumor caused about a 2.5-g loss in body weight. […] Thus, in this human breast tumor model, CCcompound1 is a potent anti-cachectic agent and its effects on body weight are accompanied by significant anti-tumor effects."}, "[3]": {"test_system": "HT-168 human melanoma tumor", "test": "HT-168 human melanoma model: body, total and tumor weight", "format": "in vivo, mice", "conditions": "for Body weight: total minus tumor weight", "excerpt": "Tumors were developed in a homozygous line of C.B.-171 cr scid/scid adult female mice kept at specified pathogen free (SPF) hygienic levels. Suspensions of HL-60 human leukemia cells (about 1,500,000 cells), or approximately 0.1 cm^3 volume of tumor tissue derived from HT-168 human melanoma, PC-3 human prostate adenocarcinoma, or T47D human breast carcinoma were implanted subcutaneously to develop the tumors. After 12-18 days when the tumor-bearing mice were first treated, the size of the tumors was in the 0.2-0.4 cm^3 range. CCcompound1 was dissolved in physiological (0.9%) saline (NaCl) and applied subcutaneously in 50 μl volume. Tumor volume was determined by calipers in three dimensions; this technique is well known to one having ordinary skill in the art. Tumor volume was calculated according to the generally accepted formula: V=a^2×b×π/6, where “a” and “b” mean the shortest and longest diameter, respectively, of the measured tumor. Tumor weight was calculated from tumor volume using a 0.7 (tumor weight) : 1 (tumor volume) ratio. Total weight and tumor volume/weight was measured regularly (at least every second day). In all tumor experiments, each treatment group consisted of five animals. Accordingly, all data are the average of five independent determinations (one determination for each animal). HT-168 human tumors were developed in mice as described above. Treatments with CCcompound1 were started on day 17 after tumor implantation and conducted for the first five days and then for another five days with two treatment-free days inserted between the two series of treatments. The results, shown in TABLE 3, indicate that between day 17 and 30 after tumor implantation, the melanoma tumor caused a 2.7-g loss in body weight."}, "[4]": {"conditions": "1.0 mg/kg s.c., day 17 (treatment start)"}, "[5]": {"conditions": "1.0 mg/kg s.c., day 17 after tumor transplantation (treatment start)"}, "[6]": {"conditions": "2.0 mg/kg s.c., day 17 (treatment start)"}, "[7]": {"conditions": "4.0 mg/kg s.c., day 17 (treatment start)"}}}
{"smiles": "Cc1c(OCC(O)C[N+](C)(C)C)cc2c(=O)c3ccccc3sc2c1C.[Cl-]", "note": "(stereo not shown) [CCcompound1, [3-(3,4-Dimethyl-9-oxo-9H-thioxanthen-2-yloxy)-2-hydroxypropyl]trimethyl-ammonium chloride]", "values": [{"measurement": "Water solubility", "setting": "[1]", "value": "fully water-soluble"}, {"measurement": "Tumor weight", "setting": "[2]; [4]", "value": 0.2, "unit": "g"}, {"measurement": "Body weight", "setting": "[2]; [4]", "value": 26.3, "unit": "g"}, {"measurement": "Total weight", "setting": "[2]; [5]", "value": 26.5, "unit": "g"}, {"measurement": "Tumor weight", "setting": "[2]; 1.0 mg/kg s.c., day 28", "value": 1.6, "unit": "g"}, {"measurement": "Body weight", "setting": "[2]; 1.0 mg/kg s.c., day 28", "value": 27.7, "unit": "g"}, {"measurement": "Total weight", "setting": "[2]; 1.0 mg/kg s.c., day 28 after tumor transplantation", "value": 29.3, "unit": "g"}, {"measurement": "Total weight", "setting": "[2]; [6]", "value": 26.9, "unit": "g"}, {"measurement": "Tumor weight", "setting": "[2]; [6]", "value": 0.2, "unit": "g"}, {"measurement": "Body weight", "setting": "[2]; [6]", "value": 26.7, "unit": "g"}, {"measurement": "Total weight", "setting": "[2]; 2.0 mg/kg s.c., day 28", "value": 28.7, "unit": "g"}, {"measurement": "Tumor weight", "setting": "[2]; 2.0 mg/kg s.c., day 28", "value": 1.5, "unit": "g"}, {"measurement": "Body weight", "setting": "[2]; 2.0 mg/kg s.c., day 28", "value": 27.2, "unit": "g"}, {"measurement": "Total weight", "setting": "[2]; [7]", "value": 27.0, "unit": "g"}, {"measurement": "Tumor weight", "setting": "[2]; [7]", "value": 0.2, "unit": "g"}, {"measurement": "Body weight", "setting": "[2]; [7]", "value": 26.8, "unit": "g"}, {"measurement": "Total weight", "setting": "[2]; 4.0 mg/kg s.c., day 28", "value": 30.9, "unit": "g"}, {"measurement": "Tumor weight", "setting": "[2]; 4.0 mg/kg s.c., day 28", "value": 1.2, "unit": "g"}, {"measurement": "Body weight", "setting": "[2]; 4.0 mg/kg s.c., day 28", "value": 29.7, "unit": "g"}, {"measurement": "Effect on body weight loss", "setting": "[2]; 1-mg/kg, between day 17 and 28", "value": "fully reversed body weight loss"}, {"measurement": "Body weight gain", "setting": "[2]; 4-mg/kg, between day 17 and 28", "value": 3.1, "unit": "g"}, {"measurement": "Reduction of tumor weight", "setting": "[2]; 4-mg/kg, day 28", "value": "about 40%"}, {"measurement": "Tumor weight", "setting": "[3]; [4]", "value": 0.2, "unit": "g"}, {"measurement": "Body weight", "setting": "[3]; [4]", "value": 23.8, "unit": "g"}, {"measurement": "Total weight", "setting": "[3]; [5]", "value": 24.0, "unit": "g"}, {"measurement": "Tumor weight", "setting": "[3]; 1.0 mg/kg s.c., day 30", "value": 2.1, "unit": "g"}, {"measurement": "Body weight", "setting": "[3]; 1.0 mg/kg s.c., day 30", "value": 25.5, "unit": "g"}, {"measurement": "Total weight", "setting": "[3]; 1.0 mg/kg s.c., day 30 after tumor transplantation", "value": 27.6, "unit": "g"}, {"measurement": "Total weight", "setting": "[3]; [6]", "value": 23.1, "unit": "g"}, {"measurement": "Tumor weight", "setting": "[3]; [6]", "value": 0.2, "unit": "g"}, {"measurement": "Body weight", "setting": "[3]; [6]", "value": 22.9, "unit": "g"}, {"measurement": "Total weight", "setting": "[3]; 2.0 mg/kg s.c., day 30", "value": 25.8, "unit": "g"}, {"measurement": "Tumor weight", "setting": "[3]; 2.0 mg/kg s.c., day 30", "value": 1.8, "unit": "g"}, {"measurement": "Body weight", "setting": "[3]; 2.0 mg/kg s.c., day 30", "value": 24.0, "unit": "g"}, {"measurement": "Total weight", "setting": "[3]; [7]", "value": 23.8, "unit": "g"}, {"measurement": "Tumor weight", "setting": "[3]; [7]", "value": 0.2, "unit": "g"}, {"measurement": "Body weight", "setting": "[3]; [7]", "value": 23.6, "unit": "g"}, {"measurement": "Total weight", "setting": "[3]; 4.0 mg/kg s.c., day 30", "value": 29.6, "unit": "g"}, {"measurement": "Tumor weight", "setting": "[3]; 4.0 mg/kg s.c., day 30", "value": 1.2, "unit": "g"}, {"measurement": "Body weight", "setting": "[3]; 4.0 mg/kg s.c., day 30", "value": 28.4, "unit": "g"}, {"measurement": "Effect on body weight loss", "setting": "[3]; 1-mg/kg, between day 17 and 30", "value": "sufficient to reverse body weight loss"}, {"measurement": "Body weight gain", "setting": "[3]; 4-mg/kg, between day 17 and 30", "value": "~5", "unit": "g"}, {"measurement": "Reduction of tumor weight", "setting": "[3]; 4-mg/kg, day 30", "value": "more than 50%"}]}
